Assays:
Type in all cases: in vivo
Conditions in all cases: 14 days after application
Festuca arundinacea = assay: Post-emergent spray of sarmentine and amicarbazone on grass seedlings, fresh weight and Colby synergy
Protocol: (§1) Post-emergent effects of sarmentine and amicarbazone were evaluated on annual bluegrass (Poa annua), Kentucky bluegrass (Poa pratensis), Perennial ryegrass (Lolium perenne), Tall fescue (Festuca arundinacea) and Creeping Bentgrass (Agrostis stolonifera). For each of the five species tested, fifteen seedlings at the 1-2 leaf stage, in 2.5 cm square pots containing plant growth mix, were sprayed with two suboptimal doses of sarmentine, two suboptimal doses of amicarbazone, or a factorial combination thereof, as shown in Tables 4-8. A volume of 40 gal/Acre was applied, using a cabinet track sprayer. Negative controls were sprayed with water. Pots were randomly placed in a growth room at 25° C. and 50% relative humidity, and watered as necessary. Treatments were arranged in a 2 k factorial design with three repeat measures and evaluated for fresh weight at 14 days after application. Potential synergy was evaluated by calculating the ratio of observed (E) to expected (Ee) percent of control weight, according to Colby's formula. Colby (1967) Weeds 15:20-22. Percent control was calculated in relation to the untreated control (0% control) with 100% control denoting no living green tissue remaining at 14 days after treatment. An E/Ee score above 1.0 indicates a synergistic interaction between two substances.

Lolium perenne = assay: as above
Protocol: as §1

Agrostis stolonifera [1] = assay: as above
Protocol: as §1

Poa pratensis [2] = assay: as above
Protocol: as §1

Poa annua [3] = assay: as above
Protocol: as §1

Agrostis stolonifera [4] = assay: Post-emergent spray of sarmentine and paclobutrazol on grass seedlings, fresh weight and Colby synergy
Protocol: as §1, with “paclobutrazol” for “amicarbazone”, “pratensis),” for “pratensis), Perennial ryegrass (Lolium perenne), Tall fescue (Festuca arundinacea)”, “three” for “five”, “paclobutrazol,” for “amicarbazone,”, “1-3.” for “4-8.”

Poa pratensis [5] = assay: as above
Protocol: as §1, with “paclobutrazol” for “amicarbazone”, “pratensis),” for “pratensis), Perennial ryegrass (Lolium perenne), Tall fescue (Festuca arundinacea)”, “three” for “five”, “paclobutrazol,” for “amicarbazone,”, “1-3.” for “4-8.”

Poa annua [6] = assay: as above
Protocol: as §1, with “paclobutrazol” for “amicarbazone”, “pratensis),” for “pratensis), Perennial ryegrass (Lolium perenne), Tall fescue (Festuca arundinacea)”, “three” for “five”, “paclobutrazol,” for “amicarbazone,”, “1-3.” for “4-8.”

[7] = paclobutrazol 0.042 mg/ml alone
[8] = paclobutrazol 0.481 mg/ml alone
[9] = paclobutrazol 0.0467 mg/ml alone
[10] = paclobutrazol 0.293 mg/ml alone

SMILES: CC(C)c1nn(C(=O)NC(C)(C)C)c(=O)n1N [Amicarbazone]
- % Control (Festuca arundinacea; amicarbazone 0.315 mg/ml alone): 8.1%
- AVG Fresh Weight (Festuca arundinacea; amicarbazone 0.315 mg/ml alone): 2.3 g
- % Control (Festuca arundinacea; amicarbazone 1.228 mg/ml alone): 10.2%
- AVG Fresh Weight (Festuca arundinacea; amicarbazone 1.228 mg/ml alone): 2.2 g
- % Control (Lolium perenne; amicarbazone 1.03 mg/ml alone): 30.9%
- AVG Fresh Weight (Lolium perenne; amicarbazone 1.03 mg/ml alone): 0.96 g
- % Control (Lolium perenne; amicarbazone 1.903 mg/ml alone): 35.7%
- AVG Fresh Weight (Lolium perenne; amicarbazone 1.903 mg/ml alone): 0.89 g
- % Control (Agrostis stolonifera [1]; amicarbazone 0.251 mg/ml alone): 19.6%
- AVG Fresh Weight (Agrostis stolonifera [1]; amicarbazone 0.251 mg/ml alone): 0.56 g
- % Control (Agrostis stolonifera [1]; amicarbazone 0.481 mg/ml alone): 29.7%
- AVG Fresh Weight (Agrostis stolonifera [1]; amicarbazone 0.481 mg/ml alone): 0.49 g
- % Control (Poa pratensis [2]; amicarbazone 0.31 mg/ml alone): 0.0%
- AVG Fresh Weight (Poa pratensis [2]; amicarbazone 0.31 mg/ml alone): 0.84 g
- % Control (Poa pratensis [2]; amicarbazone 0.544 mg/ml alone): 29.1%
- AVG Fresh Weight (Poa pratensis [2]; amicarbazone 0.544 mg/ml alone): 0.56 g
- % Control (Poa annua [3]; amicarbazone 1.53 mg/ml alone): 39.4%
- Avg Fresh Weight (Poa annua [3]; amicarbazone 1.53 mg/ml alone): 0.57 g
- % Control (Poa annua [3]; amicarbazone 2.79 mg/ml alone): 46.0%
- Avg Fresh Weight (Poa annua [3]; amicarbazone 2.79 mg/ml alone): 0.51 g

SMILES: CC(C)(C)[C@@H](O)[C@@H](Cc1ccc(Cl)cc1)n1cncn1 (racemic) [Paclobutrazol]
- % Control (Agrostis stolonifera [4]; [7]): 0.0%
- AVG Fresh Weight (Agrostis stolonifera [4]; [7]): 0.76 g
- % Control (Agrostis stolonifera [4]; [8]): 2.3%
- AVG Fresh Weight (Agrostis stolonifera [4]; [8]): 0.65 g
- % Control (Poa pratensis [5]; [9]): 14.2%
- AVG Fresh Weight (Poa pratensis [5]; [9]): 0.6 g
- % Control (Poa pratensis [5]; [10]): 0.0%
- AVG Fresh Weight (Poa pratensis [5]; [10]): 0.7 g
- % Control (Poa annua [6]; paclobutrazol 0.84 mg/ml alone): 20.8%
- AVG Fresh Weight (Poa annua [6]; paclobutrazol 0.84 mg/ml alone): 0.48 g
- % Control (Poa annua [6]; paclobutrazol 1.37 mg/ml alone): 7.9%
- AVG Fresh Weight (Poa annua [6]; paclobutrazol 1.37 mg/ml alone): 0.55 g

SMILES: CCCCC/C=C/C=C/C(=O)N1CCCC1 [Sarmentine, N-(2E,4E-Decadienoyl) pyrrolidine]
- % Control (Festuca arundinacea; sarmentine 10.27 mg/ml alone): 28.4%
- AVG Fresh Weight (Festuca arundinacea; sarmentine 10.27 mg/ml alone): 1.8 g
- % Control (Festuca arundinacea; sarmentine 33.98 mg/ml alone): 40.4%
- AVG Fresh Weight (Festuca arundinacea; sarmentine 33.98 mg/ml alone): 1.5 g
- % Control (Lolium perenne; sarmentine 10 mg/ml alone): 17.7%
- AVG Fresh Weight (Lolium perenne; sarmentine 10 mg/ml alone): 1.14 g
- % Control (Lolium perenne; sarmentine 20 mg/ml alone): 10.6%
- AVG Fresh Weight (Lolium perenne; sarmentine 20 mg/ml alone): 1.24 g
- % Control (Agrostis stolonifera [1]; sarmentine 17.43 mg/ml alone): 0.0%
- AVG Fresh Weight (Agrostis stolonifera [1]; sarmentine 17.43 mg/ml alone): 0.59 g
- % Control (Agrostis stolonifera [1]; sarmentine 24.72 mg/ml alone): 30.8%
- AVG Fresh Weight (Agrostis stolonifera [1]; sarmentine 24.72 mg/ml alone): 0.48 g
- % Control (Poa pratensis [2]; sarmentine 19.15 mg/ml alone): 9.6%
- AVG Fresh Weight (Poa pratensis [2]; sarmentine 19.15 mg/ml alone): 0.72 g
- % Control (Poa pratensis [2]; sarmentine 23.553 mg/ml alone): 9.9%
- AVG Fresh Weight (Poa pratensis [2]; sarmentine 23.553 mg/ml alone): 0.72 g
- % Control (Poa annua [3]; sarmentine 12.47 mg/ml alone): 10.3%
- Avg Fresh Weight (Poa annua [3]; sarmentine 12.47 mg/ml alone): 0.85 g
- % Control (Poa annua [3]; sarmentine 17.11 mg/ml alone): 23.0%
- Avg Fresh Weight (Poa annua [3]; sarmentine 17.11 mg/ml alone): 0.73 g
- % Control (Agrostis stolonifera [4]; sarmentine 17.43 mg/ml alone): 6.4%
- AVG Fresh Weight (Agrostis stolonifera [4]; sarmentine 17.43 mg/ml alone): 0.63 g
- % Control (Agrostis stolonifera [4]; sarmentine 24.72 mg/ml alone): 20.6%
- AVG Fresh Weight (Agrostis stolonifera [4]; sarmentine 24.72 mg/ml alone): 0.53 g
- % Control (Poa pratensis [5]; sarmentine 19.15 mg/ml alone): 11.3%
- AVG Fresh Weight (Poa pratensis [5]; sarmentine 19.15 mg/ml alone): 0.6 g
- % Control (Poa pratensis [5]; sarmentine 23.553 mg/ml alone): 7.5%
- AVG Fresh Weight (Poa pratensis [5]; sarmentine 23.553 mg/ml alone): 0.7 g
- % Control (Poa annua [6]; sarmentine 12.47 mg/ml alone): 0.0%
- AVG Fresh Weight (Poa annua [6]; sarmentine 12.47 mg/ml alone): 0.71 g
- % Control (Poa annua [6]; sarmentine 17.114 mg/ml alone): 10.0%
- AVG Fresh Weight (Poa annua [6]; sarmentine 17.114 mg/ml alone): 0.54 g
